Data from US20230085307A1, “PYRIDAZINONE COMPOUND AND HERBICIDE” (NISSAN CHEMICAL CORPORATION, priority 2019, published 2023).

Tests used:
Japanese bulrush = experiment: Test Example 1: herbicidal activity, application before weed generation under submerged conditions (Table 16, symbol B); format: in vivo, Japanese bulrush (Schoenoplectus juncoides); conditions: 320 g/ha applied herbicide
Outline: (§1)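 Submerged Wagner pots (alluvial soil, 4 cm water) sown with weed seeds and planted with 2.5-leaf rice seedlings; emulsifiable concentrate diluted in water applied to water surface on sowing day. Held in greenhouse at 25-30 °C; injury scored 0-5 by herbicidal rate after three weeks.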

oval-leafed pondweed = experiment: Test Example 1: herbicidal activity, application before weed generation under submerged conditions (Table 16, symbol C); format: in vivo, oval-leafed pondweed (Monochoria vaginalis); conditions: 320 g/ha applied herbicide
Outline: as §1

late watergrass = experiment: Test Example 2: herbicidal activity, application during weed generation under submerged conditions (Table 17, symbol A); format: in vivo, late watergrass (Echinochloa oryzicola); conditions: AAH 320 g/ha; application during weed generation, submerged conditions
Outline: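 Effect on each weed is rated three weeks post-treatment, using the same scoring criteria as the preceding test. Plants grow from mixed-sown seed in flooded alluvial soil (4 cm water) at 25° C. to 30° C., and are treated at one to two leaves with diluted emulsion dropped onto the water.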

barnyard grass [1] = experiment: Test Example 3: herbicidal effect by foliage application, Wagner pot (Table 18, symbol H); format: in vivo, barnyard grass (Echinochloa crus-galli); conditions: 320 g/ha
Outline: (§2)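 Plants were sown in alluvial soil held under 0.1–0.5 cm standing water and grown 14 days in a greenhouse at 25–30 °C. An emulsifiable formulation, water-diluted to the set dose, was then sprayed onto the foliage, and effects were scored three weeks later using previously defined criteria.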

Chinese sprangletop = experiment: Test Example 3: herbicidal effect by foliage application, Wagner pot (Table 18, symbol D); format: in vivo, chinese sprangletop (Leptochloa chinensis); conditions: 320 g/ha
Outline: as §2

barnyard grass [2] = experiment: Test Example 4: herbicidal effect by soil treatment (Table 19, symbol H); format: in vivo, barnyard grass (Echinochloa crus-galli); conditions: 320 g/ha
Outline: (§3)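 Step 1: sow seeds in sterilized diluvial soil, cover ~1.5 cm. Step 2: spray diluted emulsion onto soil surface at predetermined rate. Step 3: greenhouse, 25–30° C, three weeks. Step 4: grade effect on each plant by earlier criteria.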

windgrass = experiment: Test Example 4: herbicidal effect by soil treatment (Table 19, symbol L); format: in vivo, windgrass (Apera spica-venti); conditions: 320 g/ha
Outline: as §3

velvetleaf [3] = experiment: Test Example 4: herbicidal effect by soil treatment (Table 19, symbol M); format: in vivo, velvetleaf (Abutilon theophrasti); conditions: 320 g/ha
Outline: as §3

lambsquarters [4] = experiment: Test Example 4: herbicidal effect by soil treatment (Table 19, symbol O); format: in vivo, lambsquarters (Chenopodium album); conditions: 320 g/ha
Outline: as §3

persian speedwell = experiment: Test Example 4: herbicidal effect by soil treatment (Table 19, symbol R); format: in vivo, Persian speedwell (Veronica persica); conditions: 320 g/ha
Outline: as §3

barnyard grass [5] = experiment: Test Example 5: herbicidal effect by foliage application, plastic box (Table 20, symbol H); format: in vivo, barnyard grass (Echinochloa crus-galli); conditions: foliage application, 320 g/ha, 3 weeks after application
Outline: (§4)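 Foliar spray test: emulsion formulation diluted in water to a set application rate, sprayed onto 14-day-old plants raised in diluvial soil at 25° C to 30° C under glass. Both herbicidal effect and crop effect rated visually three weeks later.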

blackgrass = experiment: Test Example 5: herbicidal effect by foliage application, plastic box (Table 20, symbol J); format: in vivo, blackgrass (Alopecurus myosuroides); conditions: foliage application, 320 g/ha, 3 weeks after application
Outline: as §4

Italian ryegrass = experiment: Test Example 5: herbicidal effect by foliage application, plastic box (Table 20, symbol K); format: in vivo, Italian ryegrass (Lolium multiflorum); conditions: foliage application, 320 g/ha, 3 weeks after application
Outline: as §4

velvetleaf [6] = experiment: Test Example 5: herbicidal effect by foliage application, plastic box (Table 20, symbol M); format: in vivo, velvetleaf (Abutilon theophrasti); conditions: foliage application, 320 g/ha, 3 weeks after application
Outline: as §4

lambsquarters [7] = experiment: Test Example 5: herbicidal effect by foliage application, plastic box (Table 20, symbol O); format: in vivo, lambsquarters (Chenopodium album); conditions: foliage application, 320 g/ha, 3 weeks after application
Outline: as §4

Structure (SMILES)	Herbicidal effect on B: Japanese bulrush (grade 0-5) (Japanese bulrush)	Herbicidal effect on C: oval-leafed pondweed (grade 0-5) (oval-leafed pondweed)	herbicidal effect rating, A: late watergrass (late watergrass)	herbicidal effect on H (barnyard grass), rating 0-5 (barnyard grass [1])	herbicidal effect on D (Chinese sprangletop), rating 0-5 (Chinese sprangletop)	herbicidal effect rating, H: barnyard grass (barnyard grass [2])	herbicidal effect rating, L: windgrass (windgrass)	herbicidal effect rating, M: velvetleaf (velvetleaf [3])	herbicidal effect rating, O: lambsquarters (lambsquarters [4])	herbicidal effect rating, R: persian speedwell (persian speedwell)	effect on barnyard grass (H) (barnyard grass [5])	effect on blackgrass (J) (blackgrass)	effect on Italian ryegrass (K) (Italian ryegrass)	effect on velvetleaf (M) (velvetleaf [6])	effect on lambsquarters (O) (lambsquarters [7])
CCCC(=O)Oc1c(C)nn(C)c(=O)c1-c1c(-c2ccccc2OC(F)(F)F)sc2ccc(F)cc12 [2-044]	0 (Herbicidal rate of 5% or less (almost no effect))	0 (Herbicidal rate of 5% or less (almost no effect))	2 (Herbicidal rate of 20% or more and less than 40%)	3 (Herbicidal rate of 40% or more and less than 70%)	2 (Herbicidal rate of 20% or more and less than 40%)	3 (Herbicidal rate of 40% or more and less than 70%)	0 (Herbicidal rate of 5% or less (almost no effect))	3 (Herbicidal rate of 40% or more and less than 70%)	5 (Herbicidal rate of 90% or more (almost completely withered))	4 (Herbicidal rate of 70% or more and less than 90%)	0 (Herbicidal rate of 5% or less (almost no effect))	0 (Herbicidal rate of 5% or less (almost no effect))	0 (Herbicidal rate of 5% or less (almost no effect))	5 (Herbicidal rate of 90% or more (almost completely withered))	1 (Herbicidal rate of 5% or more and less than 20%)
CCOc1ccc(-c2sc3ccc(F)cc3c2-c2c(O)c(C)nn(C)c2=O)cc1 [2-030]	0 (Herbicidal rate of 5% or less (almost no effect))	0 (Herbicidal rate of 5% or less (almost no effect))	0 (Herbicidal rate of 5% or less (almost no effect))	5 (Herbicidal rate of 90% or more (almost completely withered))	3 (Herbicidal rate of 40% or more and less than 70%)	0 (Herbicidal rate of 5% or less (almost no effect))	0 (Herbicidal rate of 5% or less (almost no effect))	3 (Herbicidal rate of 40% or more and less than 70%)	5 (Herbicidal rate of 90% or more (almost completely withered))	5 (Herbicidal rate of 90% or more (almost completely withered))	5 (Herbicidal rate of 90% or more (almost completely withered))	0 (Herbicidal rate of 5% or less (almost no effect))	3 (Herbicidal rate of 40% or more and less than 70%)	5 (Herbicidal rate of 90% or more (almost completely withered))	4 (Herbicidal rate of 70% or more and less than 90%)
CCCOc1ccc(-c2sc3ccc(F)cc3c2-c2c(OC(=O)CCC)c(C)nn(C)c2=O)cc1 [2-033]	5 (Herbicidal rate of 90% or more (almost completely withered))	4 (Herbicidal rate of 70% or more and less than 90%)	1 (Herbicidal rate of 5% or more and less than 20%)	5 (Herbicidal rate of 90% or more (almost completely withered))	1 (Herbicidal rate of 5% or more and less than 20%)	0 (Herbicidal rate of 5% or less (almost no effect))	0 (Herbicidal rate of 5% or less (almost no effect))	3 (Herbicidal rate of 40% or more and less than 70%)	5 (Herbicidal rate of 90% or more (almost completely withered))	4 (Herbicidal rate of 70% or more and less than 90%)	5 (Herbicidal rate of 90% or more (almost completely withered))	3 (Herbicidal rate of 40% or more and less than 70%)	2 (Herbicidal rate of 20% or more and less than 40%)	5 (Herbicidal rate of 90% or more (almost completely withered))	5 (Herbicidal rate of 90% or more (almost completely withered))
CCCC(=O)Oc1c(C)nn(C)c(=O)c1-c1c(-c2ccc(Cl)cc2)sc2ccc(F)cc12 [2-011]	3 (Herbicidal rate of 40% or more and less than 70%)	3 (Herbicidal rate of 40% or more and less than 70%)	2 (Herbicidal rate of 20% or more and less than 40%)	5 (Herbicidal rate of 90% or more (almost completely withered))	4 (Herbicidal rate of 70% or more and less than 90%)	3 (Herbicidal rate of 40% or more and less than 70%)	2 (Herbicidal rate of 20% or more and less than 40%)	3 (Herbicidal rate of 40% or more and less than 70%)	5 (Herbicidal rate of 90% or more (almost completely withered))	4 (Herbicidal rate of 70% or more and less than 90%)	5 (Herbicidal rate of 90% or more (almost completely withered))	2 (Herbicidal rate of 20% or more and less than 40%)	5 (Herbicidal rate of 90% or more (almost completely withered))	5 (Herbicidal rate of 90% or more (almost completely withered))	5 (Herbicidal rate of 90% or more (almost completely withered))
CCCC(=O)Oc1c(C)nn(C)c(=O)c1-c1c(-c2ccc(OC(C)C)cc2)sc2ccc(F)cc12 [2-035]	4 (Herbicidal rate of 70% or more and less than 90%)	4 (Herbicidal rate of 70% or more and less than 90%)	1 (Herbicidal rate of 5% or more and less than 20%)	5 (Herbicidal rate of 90% or more (almost completely withered))	0 (Herbicidal rate of 5% or less (almost no effect))	2 (Herbicidal rate of 20% or more and less than 40%)	0 (Herbicidal rate of 5% or less (almost no effect))	3 (Herbicidal rate of 40% or more and less than 70%)	5 (Herbicidal rate of 90% or more (almost completely withered))	5 (Herbicidal rate of 90% or more (almost completely withered))	5 (Herbicidal rate of 90% or more (almost completely withered))	3 (Herbicidal rate of 40% or more and less than 70%)	0 (Herbicidal rate of 5% or less (almost no effect))	5 (Herbicidal rate of 90% or more (almost completely withered))	3 (Herbicidal rate of 40% or more and less than 70%)
